From US12479825B2, “Melanocortin subtype-2 receptor (MC2R) antagonists and uses thereof” (Crinetics Pharmaceuticals, Inc., priority 2019, dated 2025)
pKi: −log10 of the molar value.

Target: T1, hMC2 receptor (Homo sapiens, UniProt Q01718)
T1 construct: host or cells: CRE-bla-CHO-K1 cells, crude membrane fraction
Test: hMC2 membrane binding assay ([125I]ACTH (1-39) Tyr23, SPA)
Settings: crude hMC2R membranes from CRE-bla-CHO-K1 cells expressing hMC2 receptor and hMRAP; 0.2 nM [125I]ACTH (1-39) Tyr23; 1.5 hours at room temperature; read-out: MC2R binding potency
Experimental: Crude membrane fractions are prepared from CRE-bla-CHO-K1 cells stably expressing hMC2 receptor and hMRAP accessory protein (Thermo Fisher). The cells are grown to 85-100% confluence on standard tissue culture dishes in GlutaMax DMEM growth media (Gibco) with following additives: 10% dialyzed FBS (Gemini), 0.1 mM NEAA (Gibco), 25 mM HEPES (Gibco), 5 μg/mL blasticidin (Goldbio), 100 μg/mL zeocin (Invitrogen), 600 μg/mL hygromycin (Goldbio). To prepare membranes, cells are scraped and collected in 1× Dulbecco's phosphate buffered saline (Corning) and then pelleted at 1000 RPM's. The cell pellet is reconstituted in membrane preparation buffer (20 mM HEPES, 6 mM MgCl2 and 1 mM EGTA, protease inhibitor tablets (Pierce) adjusted to pH 7.4), homogenized using a dounce homogenizer, and the resulting membrane fraction is pelleted by centrifugation at 12,000 RPM's. The membrane pellet is resuspended in membrane preparation buffer, snap freezed and stored at −80° C. for later use.
The hMC2 membrane binding assay utilizes the following components: radiolabel [^125I]ACTH (1-39) Tyr23 (PerkinElmer), wheat germ agglutinin coated PVT SPA beads (PerkinElmer), crude hMC2R membranes, and compounds. Briefly hMC2R membranes are incubated with SPA beads in binding assay buffer (50 mM HEPES, 5 mM MgCl2, 1 mM CaCl2, 0.2% BSA, protease inhibitor tablets (Pierce) adjusted to pH7.4) prior to assay initiation. A dose response of compound (the final concentration of compound is typically 0-10,000 nM), SPA membranes, and [^125I]ACTH (1-39) Tyr23 at a final concentration of 0.2 nM is plated in a 96-well assay plate and allowed to incubate 1.5 hours at room temperature. Assay plates are read using a Top Count NXT and Ki values for compounds are determined using a GraphPad Prism 6 non-linear regression analysis.

T1 sequence (Q01718 whole entry): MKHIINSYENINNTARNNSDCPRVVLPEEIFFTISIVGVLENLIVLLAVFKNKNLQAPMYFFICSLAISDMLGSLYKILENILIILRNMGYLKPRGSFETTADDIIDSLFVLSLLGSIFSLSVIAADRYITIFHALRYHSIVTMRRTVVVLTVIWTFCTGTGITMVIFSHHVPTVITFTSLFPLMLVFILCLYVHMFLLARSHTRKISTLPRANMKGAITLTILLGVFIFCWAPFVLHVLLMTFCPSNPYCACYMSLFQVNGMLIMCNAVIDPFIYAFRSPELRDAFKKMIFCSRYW
T1 sequence (Q8TCY5 whole entry partner): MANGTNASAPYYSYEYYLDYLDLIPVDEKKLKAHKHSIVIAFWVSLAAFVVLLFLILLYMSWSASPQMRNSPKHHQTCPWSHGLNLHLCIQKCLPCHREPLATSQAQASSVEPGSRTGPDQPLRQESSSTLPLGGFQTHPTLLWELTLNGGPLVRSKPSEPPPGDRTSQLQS

Row | SMILES | pKi
1 | CCOc1ncccc1-c1ccc(N2CC[C@@H](Oc3ccc(Cl)cc3C(F)(F)F)C[C@H]2CC)c(C(=O)N[C@@H]2CCN(C)C2)n1 (single isomer, unassigned) [2-9, 5-[(2R,4R)*-4-[4-chloro-2-(trifluoromethyl)phenoxy]-2-ethylpiperidin-1-yl]-2′-ethoxy-N-[(3R)-1-methylpyrrolidin-3-yl]-[2,3′-bipyridine]-6-carboxamide] | > 8.00
2 | CCOc1ncccc1-c1ccc(N2CC[C@H](Oc3ccc(Cl)cc3C(F)(F)F)C[C@@H]2CC)c(C(=O)N[C@@H]2CCN(C)C2)n1 (single isomer, unassigned) [2-10, 5-[(2S,4S)*-4-[4-chloro-2-(trifluoromethyl)phenoxy]-2-ethylpiperidin-1-yl]-2′-ethoxy-N-[(3R)-1-methylpyrrolidin-3-yl]-[2,3′-bipyridine]-6-carboxamide] | 7.00 to 8.00
3 | CCOc1ncccc1-c1ccc(N2CC[C@@H](Oc3ccc(C(F)(F)F)cc3C#N)C[C@H]2CC)c(C(=O)N[C@@H]2CCN(C)C2)n1 (single isomer, unassigned) [2-11] | > 8.00
4 | CCOc1ncccc1-c1ccc(N2CC[C@H](Oc3ccc(C(F)(F)F)cc3C#N)C[C@@H]2CC)c(C(=O)N[C@@H]2CCN(C)C2)n1 (single isomer, unassigned) [2-12] | 7.00 to 8.00
5 | CCOc1ncccc1-c1ccc(N2CC[C@@H](Oc3ccc(C(F)(F)F)nc3C#N)C[C@H]2CC)c(C(=O)N[C@@H]2CCN(C)C2)n1 (single isomer, unassigned) [2-18] | > 8.00
6 | CCOc1ncccc1-c1ccc(N2CC[C@@H](Oc3ccc(Cl)cc3C#N)C[C@H]2CC)c(C(=O)N[C@@H]2CCN(C)C2)n1 (single isomer, unassigned) [2-21] | > 8.00
7 | CCOc1ncccc1-c1ccc(N2CC[C@@H](Oc3ccc(C(F)(F)F)nc3C#N)C[C@H]2CC)c(C(=O)N[C@H]2CCN(C)C2)n1 (single isomer, unassigned) [2-22] | > 8.00
8 | CCOc1ncccc1-c1ccc(N2CCN(C(=O)C3(C(F)(F)F)CCCC3)C[C@H]2CC)c(O[C@@H]2CCN(C)C2)n1 [1-3, 2′-ethoxy-5-[(2R)-2-ethyl-4-[1-(trifluoromethyl)cyclopentanecarbonyl]piperazin-1-yl]-6-{[(3R)-1-methylpyrrolidin-3-yl]oxy}-2,3′-bipyridine] | 7.00 to 8.00
9 | CCOc1ncccc1-c1ccc(N2CCN(C(=O)N3CCC[C@H]3C(F)(F)F)C[C@H]2CC)c(O[C@@H]2CCN(C)C2)n1 [1-4, 2′-ethoxy-5-[(2R)-2-ethyl-4-[(2S)-2-(trifluoromethyl)pyrrolidine-1-carbonyl]piperazin-1-yl]-6-{[(3R)-1-methylpyrrolidin-3-yl]oxy}-2,3′-bipyridine] | 7.00 to 8.00
10 | CCOc1ccc(C(=O)N2CCN(c3ccc(-c4cccnc4OCC)nc3O[C@@H]3CCNC3)[C@H](CC)C2)c(C(F)(F)F)n1 [1-5, 2′-ethoxy-5-[(2R)-4-[6-ethoxy-2-(trifluoromethyl)pyridine-3-carbonyl]-2-ethylpiperazin-1-yl]-6-[(3R)-pyrrolidin-3-yloxy]-2,3′-bipyridine] | > 8.00
11 | CCOc1ncccc1-c1ccc(N2CCN(C(=O)c3ccc(F)cc3C(F)F)C[C@H]2CC)c(O[C@@H]2CCNC2)n1 [1-6, 5-[(2R)-4-[2-(difluoromethyl)-4-fluorobenzoyl]-2-ethylpiperazin-1-yl]-2′-ethoxy-6-[(3R)-pyrrolidin-3-yloxy]-2,3′-bipyridine] | > 8.00
12 | CCOc1ncccc1-c1ccc(N2CCN(C(=O)c3ccc(Cl)cc3C(F)(F)F)C[C@H]2CC)c(O[C@@H]2CCNC2)n1 [1-7, 5-[(2R)-4-[4-chloro-2-(trifluoromethyl)benzoyl]-2-ethylpiperazin-1-yl]-2′-ethoxy-6-[(3R)-pyrrolidin-3-yloxy]-2,3′-bipyridine] | > 8.00
13 | CCOc1ncccc1-c1ccc(N2CCN(C(=O)N3CCC[C@H]3C(F)(F)F)C[C@H]2CC)c(O[C@@H]2CCNC2)n1 [1-8, 2′-ethoxy-5-[(2R)-2-ethyl-4-[(2S)-2-(trifluoromethyl)pyrrolidine-1-carbonyl]piperazin-1-yl]-6-[(3R)-pyrrolidin-3-yloxy]-2,3′-bipyridine] | > 8.00
14 | CCOc1ccc(C(=O)N2CCN(c3ccc(-c4cccnc4OCC)nc3OCCNC)[C@H](CC)C2)c(C(F)(F)F)n1 [1-9, [2-({2′-ethoxy-5-[(2R)-4-[6-ethoxy-2-(trifluoromethyl)pyridine-3-carbonyl]-2-ethylpiperazin-1-yl]-[2,3′-bipyridin]-6-yl}oxy)ethyl](methyl)amine] | > 8.00
15 | CCOc1ncccc1-c1ccc(N2CCN(C(=O)c3ccc(F)cc3C(F)F)C[C@H]2CC)c(OCCNC)n1 [1-10, [2-({5-[(2R)-4-[2-(difluoromethyl)-4-fluorobenzoyl]-2-ethylpiperazin-1-yl]-2′-ethoxy-[2,3′-bipyridin]-6-yl}oxy)ethyl](methyl)amine] | > 8.00
16 | CCOc1ncccc1-c1ccc(N2CCN(C(=O)N3CCC[C@H]3C(F)(F)F)C[C@H]2CC)c(OCCNC)n1 [1-11, [2-({2′-ethoxy-5-[(2R)-2-ethyl-4-[(2S)-2-(trifluoromethyl)pyrrolidine-1-carbonyl]piperazin-1-yl]-[2,3′-bipyridin]-6-yl}oxy)ethyl](methyl)amine] | > 8.00
17 | CCOc1ccc(C(=O)N2CCN(c3ccc(-c4cccnc4OCC)nc3OCCN)[C@H](CC)C2)c(C(F)(F)F)n1 [1-12, 2-({2′-ethoxy-5-[(2R)-4-[6-ethoxy-2-(trifluoromethyl)pyridine-3-carbonyl]-2-ethylpiperazin-1-yl]-[2,3′-bipyridin]-6-yl}oxy)ethan-1-amine] | > 8.00
18 | CCOc1ncccc1-c1ccc(N2CCN(C(=O)c3ccc(F)cc3C(F)F)C[C@H]2CC)c(OCCN)n1 [1-13, 2-({5-[(2R)-4-[2-(difluoromethyl)-4-fluorobenzoyl]-2-ethylpiperazin-1-yl]-2′-ethoxy-[2,3′-bipyridin]-6-yl}oxy)ethan-1-amine] | > 8.00
19 | CCOc1ncccc1-c1ccc(N2CCN(C(=O)N3CCC[C@H]3C(F)(F)F)C[C@H]2CC)c(OCCN)n1 [1-14, 2-({2′-ethoxy-5-[(2R)-2-ethyl-4-[(2S)-2-(trifluoromethyl)pyrrolidine-1-carbonyl]piperazin-1-yl]-[2,3′-bipyridin]-6-yl}oxy)ethan-1-amine] | > 8.00
20 | CCOc1ncccc1-c1ccc(N2CCN(C(=O)c3ccc(Cl)cc3C(F)(F)F)C[C@H]2CC)c(OCCNC)n1 [1-15, [2-({5-[(2R)-4-[4-chloro-2-(trifluoromethyl)benzoyl]-2-ethylpiperazin-1-yl]-2′-ethoxy-[2,3′-bipyridin]-6-yl}oxy)ethyl](methyl)amine] | > 8.00
21 | CCOc1ncccc1-c1ccc(N2CCN(C(=O)c3ccc(Cl)cc3C(F)(F)F)C[C@H]2CC)c(OCCN)n1 [1-16, 2-({5-[(2R)-4-[4-chloro-2-(trifluoromethyl)benzoyl]-2-ethylpiperazin-1-yl]-2′-ethoxy-[2,3′-bipyridin]-6-yl}oxy)ethan-1-amine] | > 8.00
22 | CCOc1ccc(C(=O)N2CCN(c3ccc(-c4cccnc4OCC)nc3OCCN(C)C)[C@H](CC)C2)c(C(F)(F)F)n1 [1-17, [2-({2′-ethoxy-5-[(2R)-4-[6-ethoxy-2-(trifluoromethyl)pyridine-3-carbonyl]-2-ethylpiperazin-1-yl]-[2,3′-bipyridin]-6-yl}oxy)ethyl]dimethylamine] | > 8.00
23 | CCOc1ccc(C(=O)N2CCN(c3ccc(-c4cccnc4OCC)nc3O[C@H]3CCNC3)[C@H](CC)C2)c(C(F)(F)F)n1 [1-18, 2′-ethoxy-5-[(2R)-4-[6-ethoxy-2-(trifluoromethyl)pyridine-3-carbonyl]-2-ethylpiperazin-1-yl]-6-[(3S)-pyrrolidin-3-yloxy]-2,3′-bipyridine] | > 8.00
24 | CCOc1ccc(C(=O)N2CCN(c3ccc(-c4cccnc4OCC)nc3OC[C@@H](C)N)[C@H](CC)C2)c(C(F)(F)F)n1 [1-19, (2R)-1-({2′-ethoxy-5-[(2R)-4-[6-ethoxy-2-(trifluoromethyl)pyridine-3-carbonyl]-2-ethylpiperazin-1-yl]-[2,3′-bipyridin]-6-yl}oxy)propan-2-amine] | > 8.00
25 | CCOc1ccc(C(=O)N2CCN(c3ccc(-c4cccnc4OCC)nc3OC[C@H](C)N)[C@H](CC)C2)c(C(F)(F)F)n1 [1-20, (2S)-1-({2′-ethoxy-5-[(2R)-4-[6-ethoxy-2-(trifluoromethyl)pyridine-3-carbonyl]-2-ethylpiperazin-1-yl]-[2,3′-bipyridin]-6-yl}oxy)propan-2-amine] | > 8.00
26 | CCOc1ccc(C(=O)N2CCN(c3ccc(-c4cccnc4OCC)nc3O[C@H](C)CN)[C@H](CC)C2)c(C(F)(F)F)n1 [1-21, (2R)-2-({2′-ethoxy-5-[(2R)-4-[6-ethoxy-2-(trifluoromethyl)pyridine-3-carbonyl]-2-ethylpiperazin-1-yl]-[2,3′-bipyridin]-6-yl}oxy)propan-1-amine] | > 8.00
